For data set [1] the following is noted: Liquid; for mass density: 101.33 kPa.
A short description of data set [2]: refractive index (Na D-line) (dimensionless). To be noted: 101.33 kPa, Liquid, Standard Abbe refractometry.

Molecules are shown by their SMILES. Numbers after ± are expanded uncertainties.

Broadly, the mass density is mass per unit of volume. As usually defined, the vapor or sublimation pressure is the equilibrium pressure above the liquid or solid. Usually refractive index stands for a measure of how strongly the sample bends light.

Consider `CCCCO` [butan-1-ol], for which the mass density in data set [1] (298.15 K) turned out to be 805.8 ± 2.4 kg/m3. Besides, the “vapor or sublimation pressure” value in data set [1] (389.45 K) is given as 95.8 ± 9.6 kPa. Besides, the refractive index in data set [2] (298.15 K) is recorded as 1.3974 ± 0.0012.
`ClC(Cl)C(Cl)Cl` [1,1,2,2-tetrachloroethane]: the mass density in data set [1] (298.15 K) is reported as 1586.7 ± 4.9 kg/m3. Further, the “vapor or sublimation pressure” value in data set [1] (417.35 K) and in data set [1] (417.45 K) was 95.8 ± 9.7 kPa each time. For the same compound, the refractive index in data set [2] (298.15 K) is listed as 1.4914 ± 0.0012.
As to `CC(Cl)(Cl)Cl` [1,1,1-trichloroethane], in data set [1] (298.15 K), the mass density is recorded as 1329.9 ± 4.1 kg/m3. Moreover, the “vapor or sublimation pressure” value in data set [1] (345.65 K) was found to be 95.8 ± 9.6 kPa. The refractive index in data set [2] (298.15 K) came to 1.4359 ± 0.0012.
For `CCC(C)=O` [butanone], the mass density in data set [1] (298.15 K) came to 799.7 ± 2.4 kg/m3. In data set [1] (350.75 K), the “vapor or sublimation pressure” value came to 94.6 ± 19 kPa. In addition, the refractive index in data set [2] (298.15 K) is recorded as 1.3769 ± 0.0012.
On to `ClCCCl` [1,2-dichloroethane], for which, in data set [1] (298.15 K), the mass density was found to be 1246.4 ± 3.8 kg/m3. The “vapor or sublimation pressure” value in data set [1] (355.25 K) is recorded as 95.8 ± 9.6 kPa. In addition, in data set [2] (298.15 K), the refractive index is 1.4421 ± 0.0012.
As to `C1CCOC1` [tetrahydrofuran], the mass density in data set [1] (293.15 K) was 889.2 ± 2.7 kg/m3. The figures for the “vapor or sublimation pressure” value in data set [1] (337.15 K) and in data set [1] (337.55 K) were 94.6 ± 9.5 kPa and 95.8 ± 9.6 kPa, respectively. The refractive index in data set [2] (293.15 K) is 1.4072 ± 0.0012.
As for `ClC(Cl)=C(Cl)Cl` [tetrachloroethene], the mass density in data set [1] (298.15 K) was determined as 1614.3 ± 5 kg/m3. Besides, the “vapor or sublimation pressure” value in data set [1] (392.25 K) is 95.8 ± 9.6 kPa. Also, the refractive index in data set [2] (298.15 K) stood at 1.5032 ± 0.0012.
`CC(C)(C)O` [2-methylpropan-2-ol]: the mass density in data set [1] (298.15 K) stood at 781.2 ± 2.3 kg/m3. In addition, in data set [1] (354.15 K), the “vapor or sublimation pressure” value amounted to 95.8 ± 9.6 kPa. Further, the refractive index in data set [2] (298.15 K) is recorded as 1.385 ± 0.001.
Consider `CCCCCCC` [heptane], for which the mass density in data set [1] (298.15 K) was found to be 679.5 ± 2 kg/m3. Moreover, the “vapor or sublimation pressure” value in data set [1] (369.35 K) is reported as 94.6 ± 9.5 kPa. In addition, the refractive index in data set [2] (298.15 K) is given as 1.3851 ± 0.0012.
Turning to `ClC=C(Cl)Cl` [trichloroethene], the mass density in data set [1] (303.15 K) came out at 1451.4 ± 4.5 kg/m3. The “vapor or sublimation pressure” value in data set [1] (357.95 K) came to 95.8 ± 9.6 kPa. In addition, the refractive index in data set [2] (298.15 K) amounted to 1.475 ± 0.001.
As to `CCC(C)CO` (centres undefined) [2-methyl-1-butanol], the mass density in data set [1] (298.15 K) is 815 ± 2.5 kg/m3. Also, the “vapor or sublimation pressure” value in data set [1] (400.35 K) turned out to be 95.8 ± 9.7 kPa. In addition, the refractive index in data set [2] (298.15 K) came to 1.4084 ± 0.0008.
Consider `CCC(C)O` (centres undefined) [butan-2-ol], for which the mass density in data set [1] (298.15 K) was determined as 802.4 ± 2.4 kg/m3. For the same compound, the “vapor or sublimation pressure” value in data set [1] (371.35 K) amounted to 95.8 ± 9.6 kPa. For the same compound, the refractive index in data set [2] (298.15 K) worked out at 1.3953 ± 0.0012.
For `CC(C)CO` [2-methyl-1-propanol], the mass density in data set [1] (298.15 K) is recorded as 798 ± 2 kg/m3. Moreover, the “vapor or sublimation pressure” value in data set [1] (379.65 K) is listed as 95.8 ± 19 kPa. In addition, the refractive index in data set [2] (298.15 K) was 1.3939 ± 0.0012.
As to `C1CCCCC1` [cyclohexane], in data set [1] (298.15 K), the mass density is given as 773.9 ± 2.3 kg/m3. Further, the “vapor or sublimation pressure” value in data set [1] (351.75 K) is given as 94.6 ± 9.5 kPa. In data set [2] (298.15 K), the refractive index is reported as 1.4235 ± 0.0012.

Source of the values: the NIST ThermoML archive (doi:10.1021/je030141r).
